Data published in patent publication US7345020B2, “Mimetics of CD4 that inhibit immune response” (Thomas Jefferson University, priority 1995, dated 2008).
“Also recorded” adds a separate entry of the source. Positions of bridges follow the written chain, without caps; N, C: chain ends. Residues, ends and D or L forms follow the SMILES beside them.

Experiments:
[1] = system: human peripheral blood lymphocytes (responder cell alloreactive proliferation); details: for activity of cyclic CNSNQIC compared with this linear peptide in human MLR: linear peptides derived from the same C—C′ region
Description: For this assay, fresh peripheral blood lymphocytes from two different donors are co-cultured; the cells of one donor were irradiated and served as stimulators. Proliferation of these activated T cells was measured by measuring the incorporation of ^3H-thymidine at various timepoints.
For human MLR, 50 ml of whole blood was collected into anti-coagulant (ACD, acid citrate dextrose) containing tubes. In 50 ml conical tubes, 20 ml of blood was layered over 20 ml Ficoll 1077 (Sigma Chemical Co., St. Louis, Mo.) and centrifuged at 2000 rpm for 35-40 min at 15-20° C. Buffy coats and serum were collected in 3× volume of PBS centrifuged at 1500 rpm for 15 min at 15-20° C. Supernatants were discarded, cells were washed 2× in 50 ml PBS and resuspended in RPMI supplemented with 10% heat-inactivated (56°, 30 min) human serum (cat# H4522, Sigma), 50 IU/ml pen/strep and 2 mM (1% of 200 mM stock) L-glutamine (both from BioWhitaker).
In a 96-well flat bottom plate 1×10^5 responders were plated with 2×10^5 irradiated (3000 rad) simulators/well (added in 100 μl each), and incubated for 6, 7 or 8 days at 37° C., 7% CO2. Peptide analogues were added to quadruplicate wells, at a concentration of 100 μM (5 mg/ml stock) or titrations thereof, immediately after cells were plated. For radiolabelling, the cells were incubated with 1 μCi [^3H] TdR/well (25 μl) (diluted from 1 mCi/ml stock, Amersham) for the final 6 hours of incubation. Cells were harvested using a fiberfilter cell harvester (e.g., Harvester 96, Tomtec) and counted in a Beta Counter of Beta plate reader (1205 BS Betaplate Liquid Scintillation Counter, Wallac) with scintillation fluid.

[2] = system: murine spleen responder cells with irradiated C3H stimulator cells; assay: Murine mixed lymphocyte reaction; assay type: cell-based, mouse; details: in vitro
Description: Mice were sacrificed and spleens aseptically removed. Cell suspensions were made by gently pressing spleens through nylon mesh, washing cells with RPMI 1640 and hypotonic lysis of red blood cells. After 3 washes in RPMI 1640, cells were resuspended in complete medium (RPMI 1640, 10% heat inactivated FCS, 2 mM L-glutamine, penicillin/streptomycin) and 5×10^5 responder cells incubated with 1×10^5 stimulator cells (C3H spleen cells, 2000 rad irradiated) in triplicate in round bottom 96 well plates (final volume 200 μl), and incubated with the indicated concentration of peptide (0.01, 0.1, 1, 10, 100 and 1000 μM peptide) for 5 days at 37° C., 5% CO2. 1 μCi/WELL OF [^3H] TdR was added 12 hours before thymidine incorporation was measured. Labelled DNA from cells was harvested onto glass fiber filters with a PHD cell harvester (Cambridge, Mass.), and CPM determined by liquid scintillation counting with the use of a 1209 Rackbeta (LKB, Piscataway, N.J.).

[3] = system: experimental allergic encephalomyelitis (EAE); assay: EAE inhibition in vivo (SJL EAE model); set-up: species or system mouse; details: for maximum mean EAE severity grade: SJL mice, 0.5 mg i.v. on day 12, 0-5 scale, untreated control maximum 2.0
Description: The C—C′ loop peptides were initially tested for efficacy in the SJL EAE model. In untreated animals, a high incidence of disease was observed 15-22 days after two s.c. inoculations of 1 mg of crude murine spinal cord homogenate in complete Freund's adjuvant. The severity of the disease was scored daily using the established 0-5 scale that describes the level of ascending paresis, Korngold, R., et al., 1986, Immunogenetics 24:309-315. The level of the mean EAE severity grade of mice for the untreated control group reached a maximum of 2.0. […] Also shown are the results of groups of mice that received the rD-mPGPtide, a mimic of residues 86-104 of murine homolog of CD4, which was described in Jameson et al. 1994, Nature 368:744-746.

Molecule | activity of cyclic CNSNQIC compared with this linear peptide in human MLR [1] | effect on EAE in mice, in words [3] | maximum mean EAE severity grade [3] | other results
KNSNQI | significantly higher activity |  |  | 
YCNSNQIC |  | inhibitory activity comparable to the cyclic peptide CNSNQIC |  | inhibitory activity in murine MLR, in words [2]: inhibitory activity comparable to the cyclic peptide CNSNQIC; inhibitory activity in human MLR / human T cell proliferation, in words ([1]; in vitro): inhibitory activity comparable to the cyclic peptide CNSNQIC
CC[C@H](C)[C@@H]1NC(=O)[C@H](CCC(N)=O)NC(=O)[C@H](CC(N)=O)NC(=O)[C@H](CO)NC(=O)[C@H](CC(N)=O)NC(=O)[C@@H](N)CSSC[C@@H](C(=O)O)NC1=O [cyclic CNSNQIC, CNSNQIC] (H-CNSNQIC-OH; disulfide 1-7; N-terminus and C-terminus assumed) |  | effective to ameliorate EAE; also recorded: inhibitor of EAE in mice | 1.0 | inhibition of human T cell activation (suppressive effect) ([1]; 3 h): 54.4%
KNSNQ | significantly higher activity |  |  | 
CNSNQIC (linear, no disulfide) [linear CNSNQIC] |  |  | 1.0 | 
NSNQI | significantly higher activity |  |  | 
